Holding throughout (assay type): in vivo, Sprague-Dawley rats
The subject of experiment [1] is CD38. Briefly: Western blot of CD38 expression in liver tissues of streptozotocin-induced diabetic rats. As to conditions: STZ diabetic rats, liver tissue, daily treatment for 28 days from day 15 after STZ, densitometry, n=6; normal control 100, diabetic control 112. On the technique in general: In western blotting, separated proteins are transferred to a membrane and probed.

Experiment [2] concerns GLUT4. Briefly: Western blot of GLUT4 expression in skeletal muscles of streptozotocin-induced diabetic rats. Details: concentration or dose not given beside the values. As to conditions: STZ diabetic rats, skeletal muscle, 28 days treatment, versus diabetic control G2. How it is done: (§1) “To evaluate the antidiabetic potential of the present compositions and its mechanistic role in controlling damages of vital tissues in streptozotocin-induced diabetic rats.”
(§2) • Species: Rats • Strain: Sprague-Dawley • Sex: Male • No. of animals: 36 Animals (n=6 per group) • Body weight: 110-130 g Animal House conditions • Lighting: 12/12-hour light-dark cycle • Temperature: 22±3° C. • Relative Humidity: 40 to 60%
(§3) Acclimatization: Animals have been acclimatized to the animal house environment for 2 weeks. The animal experiments were designed and conducted strictly in accordance with the guidelines of AEC. Streptozotocin (STZ) was freshly prepared in 0.1M citrate buffer (pH 4.5). T2D was induced experimentally by single intraperitoneal (i.p.) injection of low dose STZ (40 mg per kg) to the rats, kept fasted overnight. Animals were unfed for 12 h before the estimation of fasting blood glucose. When the fasting plasma glucose level had become above 250 mg dL-1 in 72 h after STZ administration, STZ treated animals were considered as diabetic and all the experimental animals were then kept without any treatment for a period of 2 weeks. The composition treatment was started on 15th day after STZ injection in the respective groups of rats.
(§4) Test sample was dissolved in water containing 0.1% v/v Dimethyl Sulfoxide (DMSO) for animal treatment. Diabetic rats were then treated with intracerebroventricular (i.c.v.) administration of test samples. The animals were divided in six groups each of which contained six rats:
(§5) Daily food and water consumptions were observed and body weights were taken on a weekly basis. After 72 h of STZ administration, blood was drawn from tail vein of rats and fasting blood glucose was measured by glucometer. On the last day of the experiment, all rats were sacrificed by common method of euthanasia. All animals were unfed for 12 h before being killed. Liver, kidneys, pancreas tissues and skeleton muscles were removed surgically and stored at −80° C. in a deep freezer for western blot analysis.
(§6) GLUT4 and CD38 expressions were evaluated by Western blot. For GLUT4 content analysis, membrane samples were prepared from skeletal muscles and for CD38 protein analysis, liver tissues were used. In Western blot analysis, 25 μg of membrane protein per sample was subjected to Sodium Dodecyl Sulfate (SDS) polyacrylamide gel electrophoresis in parallel with molecular weight markers on a 10% resolving gel. The separated proteins were then transferred to a nitrocellulose membrane in a semidry system. β-tubulin was used to ensure equivalent loading of the gel incubating the same membrane with β-tubulin antibody after stripping.
(§7) Western blotting kit was used for immunodetection, using anti-GLUT4 and anti-CD38 antibodies. Detection was done by the enhanced chemiluminescence method and densitometric quantitation was done by scanning of the autoradiographic GLUT4 and CD38 signals with the help of software. Densitometric scanning was indicated the (percentage of band intensity) of GLUT4 bands and CD38 bands of test samples treated diabetic rats and diabetic control rats. Data were expressed as percentage increase or decrease of intensity of band.
(§8) Each value represents mean±SD (n=6). The significance of in vivo data was analyzed by one-way Anova followed by Dunnet test. P<0.05 was considered as significant.

The subject of experiment [3] is GLUT4. The description is as above. As to conditions: STZ diabetic rats, skeletal muscle membrane, daily treatment for 28 days from day 15 after STZ, i.p. (Table 1), densitometry, n=6; normal control 100, diabetic control 80.
In experiment [4] the test system is CD38. Briefly: Western blot of CD38 expression in liver tissues of streptozotocin-induced diabetic rats. Details: % Decrease of CD38 Disease control: concentration or dose not given beside the values. As to conditions: STZ diabetic rats; for % Decrease of CD38 Disease control: liver tissue, 28 days treatment, versus diabetic control G2. As for the experimental part:
as §1, §2, §3, §4, §5, §6, §7, §8

With `CC1=CC(=O)CC(C)(C)[C@@]1(O)/C=C/C(C)=C\C(=O)O` [Composition G3, (2Z,4E)-5-[(1S)-1-hydroxy-2,6,6-trimethyl-4-oxocyclohex-2-en-1-yl]-3-methylpenta-2,4-dienoic acid], the “Band Intensity of CD38 (%) 45 kDa” value with CD38 [1] is recorded as 95%. In addition, the “% Increase of Glut4 over Disease control” value in the experiment on GLUT4 [2] was 37.5%. Also, the “Band Intensity of GLUT4 (%) 54 kDa” value with GLUT4 [3] worked out at 110%. Also, the “downregulation of CD38 (result in words)” value in the experiment on CD38 [4] (discussion of the Western blot results) is “not sufficient to give significant results”. Besides, in the experiment on CD38 [4], the “% Decrease of CD38 Disease control” value is 15.2%.
With `CC(CN)C(=O)O` (stereo not drawn) [Composition G4, 3-Aminoisobutyric acid], the “Band Intensity of CD38 (%) 45 kDa” value with CD38 [1] is recorded as 99%. Besides, in the experiment on GLUT4 [2], the “% Increase of Glut4 over Disease control” value is given as 30.0%. Also, the “Band Intensity of GLUT4 (%) 54 kDa” value in the experiment with GLUT4 [3] is 104%. Moreover, the “% Decrease of CD38 Disease control” value with CD38 [4] came out at 11.6%.
On to `C[S+]([O-])CCCCN=C=S` (stereo not drawn) [Composition G5, 1-isothiocyanato-4-methylsulfinylbutane], for which the “Band Intensity of CD38 (%) 45 kDa” value in the experiment with CD38 [1] is on record as 102%. Also, the “% Increase of Glut4 over Disease control” value in the experiment with GLUT4 [2] was 18.8%. For the same molecule, the “Band Intensity of GLUT4 (%) 54 kDa” value with GLUT4 [3] was determined as 95%. Besides, the “% Decrease of CD38 Disease control” value in the experiment with CD38 [4] was 8.9%.
For `O=C(O)CC(=O)C(=O)O` [Composition G6, Oxobutanedioic acid], the “Band Intensity of CD38 (%) 45 kDa” value in the experiment on CD38 [1] was 101%. Besides, in the experiment with GLUT4 [2], the “% Increase of Glut4 over Disease control” value is given as 27.5%. The “Band Intensity of GLUT4 (%) 54 kDa” value with GLUT4 [3] is listed as 102%. In the experiment with CD38 [4], the “% Decrease of CD38 Disease control” value came to 9.8%.
As for `C[C@H](O)C(=O)N[C@@H](Cc1ccccc1)C(=O)O` [Composition G7, (2S)-2-[[(2S)-2-hydroxypropanoyl]amino]-3-phenylpropanoic acid], in the experiment on CD38 [1], the “Band Intensity of CD38 (%) 45 kDa” value came out at 96%. In addition, the “% Increase of Glut4 over Disease control” value in the experiment on GLUT4 [2] was determined as 32.5%. Also, in the experiment with GLUT4 [3], the “Band Intensity of GLUT4 (%) 54 kDa” value is on record as 106%. In addition, the “% Decrease of CD38 Disease control” value with CD38 [4] is 14.3%.
In the case of `CCCCCCCCCCCCCCC(=O)O` [Composition G8, Pentadecanoic acid], in the experiment on CD38 [1], the “Band Intensity of CD38 (%) 45 kDa” value amounted to 103%. Besides, the “% Increase of Glut4 over Disease control” value with GLUT4 [2] was 25.0%. Moreover, in the experiment on GLUT4 [3], the “Band Intensity of GLUT4 (%) 54 kDa” value came out at 100%. Also, in the experiment on CD38 [4], the “% Decrease of CD38 Disease control” value is on record as 8.0%.
Turning to `CC(C)CC(N)C(=O)NC(CC(C)C)C(=O)O` (stereo not drawn) [Composition G9, Dileucine], the “Band Intensity of CD38 (%) 45 kDa” value in the experiment on CD38 [1] is recorded as 99%. In addition, the “% Increase of Glut4 over Disease control” value in the experiment on GLUT4 [2] is reported as 22.5%. In the experiment on GLUT4 [3], the “Band Intensity of GLUT4 (%) 54 kDa” value was found to be 98%. The “% Decrease of CD38 Disease control” value with CD38 [4] came out at 11.6%.
For `CC1=C(O)C(=O)C=C2C1=CC=C1[C@@]2(C)CC[C@@]2(C)[C@@H]3C[C@](C)(C(=O)O)CC[C@]3(C)CC[C@]12C` [Composition G10, (2R,4aS,6aR,6aS,14aS,14bR)-10-hydroxy-2,4a,6a,6a,9,14a-hexamethyl-11-oxo-1,3,4,5,6,13,14,14b-octahydropicene-2-carboxylic acid], in that order: 101%, 18.8%, 95% and 9.8%.
